Assay results published in publication PMC7002685, “Inhibition of vascular calcification by inositol phosphates derivatized with ethylene glycol oligomers” (Nature Communications, 2020).
Values joined by “and” are separate entries in the source; they are usually repeats but may differ in a detail not shown here. Identical values can stand only once.

System: transformation of CPP1 to CPP2 in pooled human serum
Test: In vitro serum calcification propensity (T50) screening assay
Type: biochemical
Set-up: key to T50: T50 in minutes (time to 50% CPP phase transition)
Conditions: for activity/unit mass: mean c350 x mw (Na salt); for concentration upon which a T50 of 350 min is reached (c350), mean: mean of n experiments; for concentration upon which a T50 of 350 min is reached (c350), single experiment: one value per experiment (lab journal reference E05-E40); for Concentration at T50 = 350 min mean ± s.d. (n) (c350): pooled human serum, 10 mM calcium, 6 mM phosphate, 37 °C
Method: The compounds were ranked for calcification inhibition activity using a nanoparticle-based test, developed for risk stratification, which measures the propensity for calcification in patient serum. […] The time, after which 50% of CPP phase transition occurred (T50), was assessed by time-resolved spectrophotometry at 550 nm (Supplementary Fig. 1a).
The screening assay was performed as described previously. In brief, pooled human serum (H4522, Sigma-Aldrich) stored at −20 °C was thawed at 37 °C, centrifuged (10,000 × g, and 4 °C, 30 min) (5427R, Eppendorf, Switzerland), and sterile filtered (0.22 μm filter, Millipore, Merck KGaA) to remove potential cryoprecipitates (cleared human serum). The calcium solution was 40 mM CaCl2 (102382, Merck KGaA) in HBS, pH 7.4 (RT) (100 mM HEPES (H3375, Sigma-Aldrich) and 140 mM NaCl (1734712, Fisher Scientific, Hampton, NH, USA)). […] All salt solutions and buffers were double sterile filtered (0.22 µm) and pre-warmed to 37 °C prior to use. […] The plate was sealed with an adhesive film and the absorption at 550 nm was measured every 3 min with 1 min in-between shaking for a total of 300 cycles at 37 °C using the infinite M200 microplate reader (Tecan, Männedorf, Switzerland). An A550 vs. time graph was generated and T50 (min) (time at half-maximum transition from CPP1 to CPP2) values were derived by sigmoidal curve fit using Prism 8 (nonlinear regression in the log(agonist) vs. response–variable slope (four parameter mode) using the robust fit fitting method, GraphPad Software, San Diego, CA, USA). Activities between compounds were compared by generating a T50 (min) vs. concentration (µM) graph, calculating nonlinear regression and deriving the concentration required to delay T50 to 350 min (c350) using a standard equation for the dose–response curve, Eq. (1), whereby x = [compound], y = time (min), bottom = baseline response, top = maximum response, T50 = [drug] that leads to half-maximum response, and the hill slope is a factor that describes the steepness of the curve.1 y= bottom+top - bottom/1+T50/x^hillslope.

[1] = concentration 1 μM, one value per experiment
[2] = concentration 3 μM, one value per experiment
[3] = concentration 10 μM, one value per experiment
[4] = concentration 15 μM, one value per experiment
[5] = concentration 30 μM, one value per experiment
[6] = concentration 50 μM, one value per experiment
[7] = concentration 100 μM, one value per experiment

Row | Compound | T50 [1] | T50 [2] | T50 (concentration 5 μM, one value per experiment) | T50 [3] | T50 [4] | T50 [5] | activity/unit mass [mg/L] | concentration upon which a T50 of 350 min is reached (c350), mean [µM] | concentration upon which a T50 of 350 min is reached (c350), single experiment | Concentration at T50 = 350 min mean ± s.d. (n) (c350) | T50 [6] | T50 (1 µM, individual experiments, Fig. 2a) | T50 (3 µM, individual experiments, Fig. 2a) | T50 (10 µM, individual experiments, Fig. 2a) | T50 (30 µM, individual experiments, Fig. 2a) | T50 (50 µM, individual experiments, Fig. 2a) | T50 (100 µM, individual experiments, Fig. 2a) | T50 [7]
1 | CC(O)(P(=O)(O)O)P(=O)(O)O [Etidronate, etidronate] | 222.567 and 215.333 and 215.167 | 248.167 and 245.7 and 237.9 | 290 and 263.6 and 286.233 | 321.233 and 361.6 | 433.033 and 458.567 | 729.533 | 2.61 | 10.5 | 9.9 µM and 11.5 µM and 11.3 µM and 9.1 µM | 10.5 ± 1.1 (4) µM and 2.6 ± 0.3 (4) mg/L | – | – | – | – | – | – | – | –
2 | O=P(O)(O)O[C@@H]1[C@@H](O)[C@@H](OP(=O)(O)O)[C@@H](O)[C@H](O)[C@H]1O [IP2, myo-Inositol-2,4-diphosphate] | 228.333 and 230.233 and 205.967 | 236.4 and 226.467 and 221.933 | – | 274.433 and 257.367 and 241.267 | – | 358.8 and 323.1 and 304.6 | – | 35.0 | 27.3 µM and 35.1 µM and 42.7 µM | 35.0 ± 7.7 (3) µM and 15.0 ± 3.3 (3) mg/L | 407.867 and 425.367 and 375.7 | – | – | – | – | – | – | –
3 | O=P(O)(O)O[C@@H]1[C@H](O)[C@H](O)[C@@H](OP(=O)(O)O)[C@H](OP(=O)(O)O)[C@H]1O [IP3, myo-Inositol-1,4,5-triphosphate] | 226 and 227.733 and 222.3 | 236 and 220.433 and 234.133 | – | 306.433 and 280.567 and 269.467 | – | 515.9 and 500.567 and 450.3 | – | 18.6 | 15.5 µM and 18.6 µM and 21.6 µM | 18.6 ± 3.1 (3) µM and 10.2 ± 1.7 (3) mg/L | 814.5 and 889.4 and 828.767 | – | – | – | – | – | – | –
4 | O=P(O)(O)O[C@@H]1[C@@H](O)[C@H](OP(=O)(O)O)[C@@H](OP(=O)(O)O)[C@H](O)[C@@H]1OP(=O)(O)O [IP4, myo-Inositol-2,3,5,6-tetrakisphosphate] | 211 and 218.833 and 216.333 | 225 and 236 and 231.367 | – | 262.033 and 281.067 and 280.633 | – | 466.533 and 430.4 and 481.633 | – | 19.5 | 20.1 µM and 19.8 µM and 18.8 µM | 19.5 ± 0.7 (3) µM and 13.2 ± 0.5 (3) mg/L | 774.233 and 614.5 and 810.35 | – | – | – | – | – | – | –
5 | O=P(O)(O)O[C@@H]1[C@H](OP(=O)(O)O)[C@H](OP(=O)(O)O)[C@@H](O)[C@H](OP(=O)(O)O)[C@H]1OP(=O)(O)O [IP5, myo-Inositol-1,2,3,5,6-pentakisphosphate] | 220.367 and 229.167 and 217.95 | 240.433 and 226.567 | – | 286.067 and 304.933 and 322.1 | 373.933 | 702.867 and 723.533 and 709.1 | – | 13.2 | 14.6 µM and 12.1 µM and 12.9 µM | 13.2 ± 1.3 (3) µM and 10.5 ± 1.0 (3) mg/L | – | – | – | – | – | – | – | –
6 | OP(O)(=S)O[C@H]1[C@H](OP(O)(O)=S)[C@@H](OP(O)(O)=S)[C@H](OP(O)(O)=S)[C@@H](OP(O)(O)=S)[C@H]1OP(O)(O)=S [IT6, myo-Inositol hexathiophosphate] | 209.1 and 228.433 and 226.433 | 226.567 and 251.033 and 247.133 | – | 291.533 and 299.233 and 300.133 | – | 577.433 and 598.2 and 571.6 | 12.79 | 14.4 | 14.7 µM and 14.2 µM and 14.3 µM | 14.4 ± 0.3 (3) µM | – | – | – | – | – | – | – | –
7 | O=C([O-])CC(O)(CC(=O)[O-])C(=O)[O-].O=C([O-])CC(O)(CC(=O)[O-])C(=O)[O-].[Mg+2].[Mg+2].[Mg+2] [Mg citrat] | – | – | – | – | – | – | 21.44 | > 100 | – | – | – | – | – | – | – | – | – | –
8 | O=P(O)(O)OP(=O)(O)O [PPi, sodium pyrophosphate] | 217.433 | 221.633 and 215.733 and 209.467 | – | 255.8 and 265.133 and 242.367 | 287.067 and 306.267 and 274.667 | 364.3 and 363.867 and 345.167 | – | 27.4 | 26.6 µM and 25 µM and 30.5 µM | 27.4 ± 2.8 (3) µM and 7.3 ± 0.8 (3) mg/L | 483 and 451.167 | – | – | – | – | – | – | –
9 | O[C@H]1[C@H](O)[C@@H](O)[C@H](O)[C@@H](O)[C@H]1O [myo-Inositol, myo-inositol] | 207.8 and 255.6 and 248.233 and 290.55 | 211.367 and 251.867 and 315.75 | – | 222.4 and 274.533 and 249.233 and 297.6 | – | 215.55 and 286.233 and 247.167 and 309.65 | 18.02 | > 100 | – | >100 (4) µM and >18.0 (4) mg/L | 213.1 and 307.8 | 207.8 min and 255.6 min and 248.233 min and 290.55 min | 211.367 min and 251.867 min and 315.75 min | 222.4 min and 274.533 min and 249.233 min and 297.6 min | 215.55 min and 286.233 min and 247.167 min and 309.65 min | 213.1 min and 307.8 min | 291.467 min and 250.833 min | 291.467 and 250.833
10 | magnesium citrate | 196.233 and 242.1 and 288.4 | 190.533 and 253.267 and 289.2 | – | 197.533 and 253.867 and 304.8 | – | 198.933 and 273.433 and 307.3 | – | – | – | >100 (3) µM and >21.4 (3) mg/L | – | – | – | – | – | – | – | 228.767 and 304.4 and 351.8
